Measurements published in ChEMBL document CHEMBL5038581, “Design, synthesis, and biological evaluation of novel dual inhibitors targeting lysine specific demethylase 1 (LSD1) and histone deacetylases (HDAC) for treatment of gastric cancer” (Eur J Med Chem, 2021).

Legend:
[1] = biological target: Histone deacetylase 5 (Homo sapiens, UniProt Q9UQL6); test: Inhibition of HDAC5 (unknown origin) using Ac-peptide as substrate preincubated for 15 mins followed by substrate addition by fluorescence assay
Chain of Histone deacetylase 5 (Q9UQL6 whole entry): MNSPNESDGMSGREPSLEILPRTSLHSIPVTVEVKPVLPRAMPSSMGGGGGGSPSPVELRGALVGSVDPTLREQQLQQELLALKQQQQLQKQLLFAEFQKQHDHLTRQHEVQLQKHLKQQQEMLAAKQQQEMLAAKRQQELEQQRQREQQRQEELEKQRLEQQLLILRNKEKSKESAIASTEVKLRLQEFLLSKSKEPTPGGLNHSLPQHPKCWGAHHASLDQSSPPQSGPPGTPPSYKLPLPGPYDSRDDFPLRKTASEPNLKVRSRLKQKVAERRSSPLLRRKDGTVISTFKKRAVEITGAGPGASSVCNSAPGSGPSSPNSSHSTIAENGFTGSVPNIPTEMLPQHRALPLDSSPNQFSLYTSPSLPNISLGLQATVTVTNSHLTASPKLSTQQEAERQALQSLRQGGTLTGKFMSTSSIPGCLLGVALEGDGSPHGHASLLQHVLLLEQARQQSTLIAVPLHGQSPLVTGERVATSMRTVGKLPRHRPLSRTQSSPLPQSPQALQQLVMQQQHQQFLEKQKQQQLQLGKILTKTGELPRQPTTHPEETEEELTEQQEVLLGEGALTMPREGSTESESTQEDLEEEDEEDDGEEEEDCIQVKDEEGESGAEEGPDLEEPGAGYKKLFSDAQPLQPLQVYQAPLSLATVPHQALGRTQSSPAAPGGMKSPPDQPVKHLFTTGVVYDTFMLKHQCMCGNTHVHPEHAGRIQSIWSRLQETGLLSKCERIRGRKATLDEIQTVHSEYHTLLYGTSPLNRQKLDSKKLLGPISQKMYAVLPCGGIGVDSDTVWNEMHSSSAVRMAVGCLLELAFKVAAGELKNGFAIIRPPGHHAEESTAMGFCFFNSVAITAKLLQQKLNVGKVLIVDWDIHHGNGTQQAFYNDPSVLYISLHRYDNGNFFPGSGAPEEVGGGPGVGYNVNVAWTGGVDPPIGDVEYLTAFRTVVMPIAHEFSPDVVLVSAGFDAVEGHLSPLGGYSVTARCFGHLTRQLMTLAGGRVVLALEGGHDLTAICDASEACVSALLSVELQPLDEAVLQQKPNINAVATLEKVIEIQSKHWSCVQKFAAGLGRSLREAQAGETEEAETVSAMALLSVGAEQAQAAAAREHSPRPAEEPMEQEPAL

[2] = system: MGC-803; test: cells; settings: Homo sapiens, MGC-803, 72 h
[3] = biological target: Histone deacetylase 1 (Homo sapiens, UniProt Q13547); test: Inhibition of HDAC1 (unknown origin) using Ac-peptide as substrate preincubated for 15 mins followed by substrate addition by fluorescence assay
Chain of Histone deacetylase 1 (Q13547 whole entry): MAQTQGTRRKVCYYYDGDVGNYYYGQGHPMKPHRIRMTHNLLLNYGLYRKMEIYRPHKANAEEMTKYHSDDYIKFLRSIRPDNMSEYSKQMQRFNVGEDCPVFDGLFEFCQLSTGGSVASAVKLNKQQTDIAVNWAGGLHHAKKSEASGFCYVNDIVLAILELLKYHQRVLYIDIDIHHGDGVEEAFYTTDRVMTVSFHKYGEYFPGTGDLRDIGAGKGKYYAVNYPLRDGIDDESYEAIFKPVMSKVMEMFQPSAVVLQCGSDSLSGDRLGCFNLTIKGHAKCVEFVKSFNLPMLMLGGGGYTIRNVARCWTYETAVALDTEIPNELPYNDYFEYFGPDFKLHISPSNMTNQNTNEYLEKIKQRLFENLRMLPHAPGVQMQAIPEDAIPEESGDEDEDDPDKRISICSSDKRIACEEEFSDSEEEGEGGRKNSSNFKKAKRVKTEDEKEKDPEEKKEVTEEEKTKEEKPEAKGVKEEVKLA

[4] = biological target: T1, Protein deacetylase HDAC6 (Homo sapiens, UniProt Q9UBN7); test: Inhibition of HDAC6 (unknown origin) using Ac-peptide as substrate preincubated for 15 mins followed by substrate addition by fluorescence assay
T1 sequence (Q9UBN7 whole entry): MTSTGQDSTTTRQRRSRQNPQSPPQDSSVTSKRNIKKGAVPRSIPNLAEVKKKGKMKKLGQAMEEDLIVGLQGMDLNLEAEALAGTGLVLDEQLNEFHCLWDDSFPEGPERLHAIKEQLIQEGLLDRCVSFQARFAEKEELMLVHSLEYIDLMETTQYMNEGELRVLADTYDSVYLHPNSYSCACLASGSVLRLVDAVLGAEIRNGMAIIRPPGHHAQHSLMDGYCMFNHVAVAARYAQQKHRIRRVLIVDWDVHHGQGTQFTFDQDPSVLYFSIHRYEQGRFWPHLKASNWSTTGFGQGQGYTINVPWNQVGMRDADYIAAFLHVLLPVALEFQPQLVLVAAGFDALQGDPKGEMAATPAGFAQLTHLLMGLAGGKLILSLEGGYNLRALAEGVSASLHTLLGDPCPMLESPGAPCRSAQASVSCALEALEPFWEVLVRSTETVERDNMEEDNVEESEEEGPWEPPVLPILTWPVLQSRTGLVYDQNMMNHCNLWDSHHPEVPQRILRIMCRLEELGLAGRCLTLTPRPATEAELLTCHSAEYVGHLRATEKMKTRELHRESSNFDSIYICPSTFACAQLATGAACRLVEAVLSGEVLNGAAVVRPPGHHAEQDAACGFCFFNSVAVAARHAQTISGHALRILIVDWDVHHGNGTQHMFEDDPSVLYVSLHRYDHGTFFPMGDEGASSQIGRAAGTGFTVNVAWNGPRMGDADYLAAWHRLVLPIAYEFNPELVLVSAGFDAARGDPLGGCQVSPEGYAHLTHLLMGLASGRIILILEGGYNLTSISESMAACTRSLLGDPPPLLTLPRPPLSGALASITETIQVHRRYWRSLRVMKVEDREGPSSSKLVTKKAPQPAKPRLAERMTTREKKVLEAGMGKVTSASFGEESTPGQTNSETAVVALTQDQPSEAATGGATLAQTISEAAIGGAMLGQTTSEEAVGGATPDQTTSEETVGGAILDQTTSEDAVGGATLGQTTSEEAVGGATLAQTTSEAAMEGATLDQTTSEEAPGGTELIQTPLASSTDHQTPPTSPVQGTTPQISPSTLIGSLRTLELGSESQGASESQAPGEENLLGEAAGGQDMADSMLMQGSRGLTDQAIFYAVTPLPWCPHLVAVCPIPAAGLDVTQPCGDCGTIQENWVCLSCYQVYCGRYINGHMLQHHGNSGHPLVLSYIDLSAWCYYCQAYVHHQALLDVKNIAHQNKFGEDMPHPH

[5] = biological target: T2, Lysine-specific histone demethylase 1A (Homo sapiens, UniProt O60341); test: Inhibition of recombinant LSD1 (157 to 852 residues) (unknown origin) expressed in Escherichia coli BL21 (DE) using H3K4me2 as substrate by amplex red assay
[6] = system: HCT-116; test: cells; settings: Homo sapiens, HCT-116, 72 h
[7] = biological target: T2, Lysine-specific histone demethylase 1A; test: Inhibition of recombinant LSD1 (157 to 852 residues) (unknown origin) expressed in Escherichia coli BL21 (DE) at 10 uM using H3K4me2 as substrate by amplex red assay relative to control

| Compound | IC50 [1] [µM] | IC50 [2] [µM] | IC50 [3] [µM] | IC50 [4] [µM] | IC50 [5] [µM] | IC50 [6] [µM] | inhibition [7] [%] |
| --- | --- | --- | --- | --- | --- | --- | --- |
| O=C(NO)c1ccc(/C=C/c2ccncc2)cc1 | > 10 | 3.93 | 0.63 | 0.13 | 0.85 | 3.91 | – |
| COc1ccc(F)cc1-c1cncc(/C=C/c2ccc(C(=O)NO)cc2)c1 | > 10 | 3.36 | 0.67 | 0.093 | 1.6 | 3.41 | – |
| O=C(NO)c1ccc(/C=C/c2cccc(-c3ccccc3O)c2)cc1 | > 10 | 5.99 | 0.93 | 0.18 | 1.95 | 4.23 | – |
| O=C(NO)c1ccc(/C=C/c2ccnc(-c3ccsc3)c2)cc1 | > 10 | 3.68 | 0.21 | 0.054 | 2.03 | 1.91 | – |
| O=C(NO)c1ccc(/C=C/c2ccnc(-c3cccc(CO)c3)c2)cc1 | > 10 | 1.74 | 0.28 | 0.034 | 1.14 | 1.7 | – |
| O=C(NO)c1ccc(/C=C/c2ccnc(-c3cc(F)ccc3O)c2)cc1 | 9.34 | 1.92 | 1.14 | 0.13 | 2.2 | 2.04 | – |
| O=C(NO)c1ccc(/C=C/c2cncc(-c3ccccc3O)c2)cc1 | > 10 | 5.46 | 3.37 | 0.013 | 0.51 | 4.68 | – |
| O=C(NO)c1ccc(/C=C/c2ccnc(-c3ccc(F)cc3)c2)cc1 | – | > 10 | – | – | – | > 10 | 21.2 |
| O=C(/C=C/c1ccc(/C=C/c2ccnc(-c3ccccc3O)c2)cc1)NO | – | > 10 | 0.47 | – | – | > 10 | 22.9 |
| O=C(NO)c1ccc(/C=C/c2cccc(-c3cccc(O)c3)c2)cc1 | > 10 | 8.82 | 1.24 | 0.2 | 3.65 | > 10 | – |
| Cc1ccc(-c2cc(/C=C/c3ccc(C(=O)NO)cc3)c(F)cn2)cc1 | – | > 10 | 1.18 | – | – | > 10 | 20.7 |
| O=C(NO)c1ccc(/C=C/c2cncc(-c3ccc(C(F)(F)F)cc3)c2)cc1 | – | > 10 | – | – | – | > 10 | 5.6 |
| Cc1ccc(-c2cncc(/C=C/c3ccc(C(=O)NO)cc3)c2)c(F)c1 | > 10 | 2.24 | 1.07 | 0.15 | 3.06 | 2.99 | – |
| O=C(NO)c1ccc(/C=C/c2ccnc(Br)c2)cc1 | > 10 | > 10 | 3.66 | 0.32 | 1.02 | > 10 | – |
| COc1ccccc1-c1cc(/C=C/c2ccc(C(=O)NO)cc2)ccn1 | > 10 | 6.35 | 1.04 | 0.028 | 1.07 | 8.44 | – |
| O=C(NO)c1ccc(/C=C/c2cccc(-c3cc(F)ccc3O)c2)cc1 | > 10 | > 10 | 2.12 | 0.24 | 3.51 | > 10 | – |
| O=C(NO)c1ccc(/C=C/c2ccnc(-c3cccnc3)c2)cc1 | > 10 | 4.55 | 0.58 | 0.014 | 1.37 | 5.14 | – |
| O=C(NO)c1ccc(/C=C/c2ccnc(-c3cccc(O)c3)c2)cc1 | > 10 | 2.1 | 0.29 | 0.019 | 1.83 | 1.61 | – |
| COc1ccc(-c2cc(/C=C/c3ccc(C(=O)NO)cc3)ccn2)cc1 | > 10 | 3.51 | 0.69 | 0.11 | 1.9 | 3.56 | – |
| Cc1ccc(-c2cc(/C=C/c3ccc(C(=O)NO)cc3)ccn2)cc1 | > 10 | 1.91 | 0.96 | 0.15 | 2.7 | 2.39 | – |
